Source: the supplement of paper PMC4862054

What was measured:
Settings in all cases: incubation time: 72 h
[1] = test system: CAL-148; assay: normalised viability (% of control), CellTiter-Blue; higher = more viable cells (100 = DMSO, 0 = benzethonium chloride kill control)
Experimental: (§1)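 DSRT, CellTiter-Blue viability, 72 h incubation. Signal is normalised to DMSO and benzethonium chloride controls. Value is the normalised response at dose 1.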

[2] = test system: HCC1143; assay: as above
Experimental: as §1

[3] = test system: HDQ-P1; assay: as above
Experimental: as §1

[4] = test system: SK-BR-3; assay: as above
Experimental: as §1

[5] = test system: CAL-120; assay: as above
Experimental: as §1

[6] = test system: Hs578T; assay: as above
Experimental: as §1

[7] = test system: HCC1937; assay: as above
Experimental: as §1

[8] = test system: CAL-85-1; assay: as above
Experimental: as §1

[9] = test system: CAL-51; assay: as above
Experimental: as §1

[10] = test system: MDA-MB-468; assay: as above
Experimental: as §1

[11] = test system: HCC1599; assay: as above
Experimental: as §1

[12] = test system: MDA-MB-453; assay: as above
Experimental: as §1

[13] = test system: BT-474; assay: as above
Experimental: as §1

[14] = test system: MDA-MB-231; assay: as above
Experimental: as §1

[15] = test system: MDA-MB-436; assay: as above
Experimental: as §1

[16] = test system: DU-4475; assay: as above
Experimental: as §1

[17] = test system: MFM-223; assay: as above
Experimental: as §1

[18] = test system: BT-549; assay: as above
Experimental: as §1

[19] = test system: CAL-148; assay: normalised response (% of control), CellTiter-Glo; higher = more viable cells (100 = DMSO, 0 = benzethonium chloride kill control)
In short: (§2)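 A 20 µl suspension of breast cancer cells was seeded into each well of 384-well plates containing compound at 5 concentrations in 10-fold steps over a compound-specific 10,000-fold range. After 72 h incubation, CellTox Green fluorescence (485/520 nm) was read first, and CellTiter-Glo luminescence was read after 10 min at room temperature. Each plate was normalised against 0.1 % DMSO (100) and a positive kill control (0), and each value is the normalised signal at one concentration.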

[20] = test system: HCC1143; assay: as above
In short: as §2

[21] = test system: HDQ-P1; assay: as above
In short: as §2

[22] = test system: SK-BR-3; assay: as above
In short: as §2

[23] = test system: CAL-120; assay: as above
In short: as §2

[24] = test system: Hs578T; assay: as above
In short: as §2

[25] = test system: HCC1937; assay: as above
In short: as §2

[26] = test system: CAL-85-1; assay: as above
In short: as §2

[27] = test system: CAL-51; assay: as above
In short: as §2

[28] = test system: MDA-MB-468; assay: as above
In short: as §2

[29] = test system: HCC1599; assay: as above
In short: as §2

[30] = test system: MDA-MB-453; assay: as above
In short: as §2

[31] = test system: BT-474; assay: as above
In short: as §2

[32] = test system: MCF-10A; assay: as above
In short: as §2

[33] = test system: MDA-MB-231; assay: as above
In short: as §2

[34] = test system: MDA-MB-436; assay: as above
In short: as §2

[35] = test system: DU-4475; assay: as above
In short: as §2

[36] = test system: MFM-223; assay: as above
In short: as §2

[37] = test system: BT-549; assay: as above
In short: as §2

For S=c1[nH]cnc2nc[nH]c12 [Mercaptopurine] (1 nM), the normalised viability [1] was 116%, the normalised viability [2] was 97.6% and the normalised viability [3] was 106%. For the same compound, the normalised viability [4] was 104%, the normalised viability [5] was 96.6% and the normalised viability [6] was 130%. For the same compound, the normalised viability [7] was 93.6%, the normalised viability [8] was 84% and the normalised viability [9] was 104%. For the same compound, the normalised viability [10] was 98.7%, the normalised viability [11] was 97.3% and the normalised viability [12] was 105%. For the same compound, the normalised viability [13] was 105%, the normalised viability [14] was 103% and the normalised viability [15] was 80.8%. The normalised viability [16] was 101%, the normalised viability [17] was 95.9% and the normalised viability [18] was 107%. For the same compound, the normalised response [19] was 91.3%, the normalised response [20] was 97.8% and the normalised response [21] was 108%. It also gave a normalised response [22] of 95.7%, a normalised response [23] of 99.5% and a normalised response [24] of 103%. It also gave a normalised response [25] of 99.8%, a normalised response [26] of 96.9% and a normalised response [27] of 122%. For the same compound, the normalised response [28] was 90.8%, the normalised response [29] was 98.9% and the normalised response [30] was 109%. For the same compound, the normalised response [31] was 90.2%, the normalised response [32] was 95.3% and the normalised response [33] was 98.2%. For the same compound, the normalised response [34] was 97.2%, the normalised response [35] was 92.4% and the normalised response [36] was 97.3%. For the same compound, the normalised response [37] was 108%.

Compound Nc1nc(Cl)nc2c1ncn2[C@H]1C[C@H](O)[C@@H](CO)O1 [Cladribine] (0.1 nM) has a normalised viability [1] of 117%, a normalised viability [2] of 91.8% and a normalised viability [3] of 109%. The normalised viability [4] was 95.5%, the normalised viability [5] was 98.3% and the normalised viability [6] was 108%. It also gave a normalised viability [7] of 86.8%, a normalised viability [8] of 85.4% and a normalised viability [9] of 112%. For the same compound, the normalised viability [10] was 98.4%, the normalised viability [11] was 88.7% and the normalised viability [12] was 112%. It also gave a normalised viability [13] of 75.1%, a normalised viability [14] of 74.9% and a normalised viability [15] of 107%. It also gave a normalised viability [16] of 99.2%, a normalised viability [17] of 89.3% and a normalised viability [18] of 85.4%. It also gave a normalised response [19] of 97.7%, a normalised response [20] of 105% and a normalised response [21] of 96.3%. It also gave a normalised response [22] of 100%, a normalised response [23] of 94.3% and a normalised response [24] of 105%. It also gave a normalised response [25] of 101%, a normalised response [26] of 99.8% and a normalised response [27] of 114%. It also gave a normalised response [28] of 101%, a normalised response [29] of 91.3% and a normalised response [30] of 105%. It also gave a normalised response [31] of 99.6%, a normalised response [32] of 106% and a normalised response [33] of 102%. It also gave a normalised response [34] of 148%, a normalised response [35] of 105% and a normalised response [36] of 106%. The normalised response [37] was 109%.

In the case of CN1CCC(COc2cnc(-c3cccc(Cn4nc(-c5cccc(C#N)c5)ccc4=O)c3)nc2)CC1 (1 nM), the normalised viability [1] is reported as 89.6%, the normalised viability [2] is reported as 110% and the normalised viability [3] is reported as 77.4%. It also gave a normalised viability [4] of 96.4%, a normalised viability [5] of 102% and a normalised viability [6] of 98.4%. The normalised viability [7] was 86.7%, the normalised viability [8] was 99.6% and the normalised viability [9] was 90.5%. For the same compound, the normalised viability [10] was 92.5%, the normalised viability [11] was 110% and the normalised viability [12] was 104%. It also gave a normalised viability [13] of 83.7%, a normalised viability [14] of 77.3% and a normalised viability [15] of 98.7%. The normalised viability [16] was 100%, the normalised viability [17] was 101% and the normalised viability [18] was 93.2%. The normalised response [19] was 97.8%, the normalised response [20] was 102% and the normalised response [21] was 95.3%. For the same compound, the normalised response [22] was 71%, the normalised response [23] was 99.1% and the normalised response [24] was 96.7%. For the same compound, the normalised response [25] was 103%, the normalised response [26] was 90.4% and the normalised response [27] was 127%. For the same compound, the normalised response [28] was 92.3%, the normalised response [29] was 112% and the normalised response [30] was 91.3%. The normalised response [31] was 101%, the normalised response [32] was 93.9% and the normalised response [33] was 95.1%. The normalised response [34] was 91.4%, the normalised response [35] was 100% and the normalised response [36] was 93.6%. It also gave a normalised response [37] of 93.5%.
